Data on four compounds can be found in patent publication US20160074462A1, “Method of Treating HCV” (priority 2014, published 2016).

For this data set the following is noted: human, in vivo. An excerpt: Food effect on the drug exposure (e.g., AUC) of Compound 1/r, Compound 2 and Compound 3 was not known. Food effect on the drug exposure of these compounds was also not considered predictable.
The increase in exposure was similar regardless of meal type (e.g., high-fat vs. moderate-fat) or calorie content (500-600 kcal vs. 1000 kcal). Therefore, the combination of Compound 1/r, Compound 2 and Compound 3, the combination of Compound 1/r and Compound 3, as well as the combination of Compound 1/r and Compound 2, can be taken with food without regard to the specific fat or calorie content.

With `Cc1cnc(C(=O)N[C@H]2CCCCC/C=C\[C@@H]3C[C@@]3(C(=O)NS(=O)(=O)C3CC3)NC(=O)[C@@H]3C[C@@H](Oc4nc5ccccc5c5ccccc45)CN3C2=O)cn1` [Compound 1, (2R,6S,13aS,14aR,16aS,Z)-N-(cyclopropylsulfonyl)-6-(5-methylpyrazine-2-carboxamido)-5,16-dioxo-2-(phenanthridin-6-yloxy)-1,2,3,5,6,7,8,9,10,11,13a,14,14a,15,16,16a-hexadecahydrocyclopropa[e]pyrrolo[1,2-a][1,4]diazacyclop entadecine-14a-carboxamide], the “increase of exposure (AUC) by food” value is given as at most 367%.

Take `COc1c(-c2ccc3cc(NS(C)(=O)=O)ccc3c2)cc(-n2ccc(=O)[nH]c2=O)cc1C(C)(C)C` [Compound 2, N-(6-(3-tert-butyl-5-(2,4-dioxo-3,4-dihydropyrimidin-1(2H)-yl)-2-methoxyphenyl)naphthalen-2-yl)methanesulfonamide]: the “increase of exposure (AUC) by food” value was at most 53%.

Turning to `COC(=O)N[C@H](C(=O)N1CCCC1C(=O)Nc1ccc(C2CC[C@@H](c3ccc(NC(=O)[C@@H]4CCCN4C(=O)[C@@H](NC(=O)OC)C(C)C)cc3)N2c2ccc(C(C)(C)C)cc2)cc1)C(C)C` (stereo partly shown) [Compound 3], the “increase of exposure (AUC) by food” value was “up to 127%”.

`CC(C)c1nc(CN(C)C(=O)N[C@H](C(=O)N[C@@H](Cc2ccccc2)C[C@H](O)[C@H](Cc2ccccc2)NC(=O)OCc2cncs2)C(C)C)cs1` [ritonavir, reference compound]: the “increase of exposure (AUC) by food” value is on record as at most 63%.
